In ChEMBL document CHEMBL1130581, “Inhibition of nematode induced root damage by derivatives of methylenecyclopropane acetic acid” (1997):
≈ marks a conversion by molar mass, not a printed value.

Legend:
Format in all cases: functional
Meloidogyne incognita [1] = experiment: Average percent inhibition of nematode pest Meloidogyne incognita induced root galling of treated sand medium at 0.5 ppm
Meloidogyne incognita [2] = experiment: Average percent inhibition of nematode pest Meloidogyne incognita induced root galling of treated sand medium at 125 ppm
Meloidogyne incognita [3] = experiment: Average percent inhibition of nematode pest Meloidogyne incognita induced root galling of treated sand medium at 7.8 ppm
Meloidogyne incognita [4] = experiment: Average percent inhibition of nematode pest Meloidogyne incognita induced root galling of treated soil medium at 0.5 ppm
Meloidogyne incognita [5] = experiment: Average percent inhibition of nematode pest Meloidogyne incognita induced root galling of treated soil medium at 125 ppm
Meloidogyne incognita [6] = experiment: Average percent inhibition of nematode pest Meloidogyne incognita induced root galling of treated soil medium at 7.8 ppm
Meloidogyne incognita [7] = experiment: Lethal concentration required for inhibition of nematode induced root galling of treated sand medium to that of untreated soil medium

| Structure (SMILES) | inhibition at 0.5 ppm (Meloidogyne incognita [1]) [%] | inhibition at 125 ppm (Meloidogyne incognita [2]) [%] | inhibition at 7.8 ppm (Meloidogyne incognita [3]) [%] | inhibition at 0.5 ppm (Meloidogyne incognita [4]) [%] | inhibition at 125 ppm (Meloidogyne incognita [5]) [%] | inhibition at 7.8 ppm (Meloidogyne incognita [6]) [%] | LC50 (Meloidogyne incognita [7]) [µg/mL] |
| --- | --- | --- | --- | --- | --- | --- | --- |
| C=C1CC1CC(=O)OCc1cccc(Oc2ccccc2)c1 (stereo not drawn) | 50 | 100 | 100 | 0 | 50 | 0 |  |
| C=C1CC1CC(N)=O (stereo not drawn) | 0 | 100 | 100 | 0 | 100 | 0 |  |
| C=C1C(CC(=O)OCCCCCCCCCCCCCCCC)C1(F)F (stereo not drawn) |  |  |  | 0 | 0 | 0 |  |
| C=C1CC1CCSC1=NCCS1 (stereo not drawn) | 50 | 100 | 100 | 0 | 100 | 25 |  |
| C=C1C(CC(=O)OCc2cccc(Oc3ccccc3)c2)C1(F)F (stereo not drawn) |  |  |  | 0 | 25 | 0 |  |
| C=C1CC1CCN (stereo not drawn) | 25 | 100 | 100 | 0 | 75 | 0 |  |
| CNC(=O)O/N=C/C(C)(C)SC [ALDICARB] |  |  |  |  |  |  | 3.8 (≈ 20 µM) |
| CC1CC1CC(=O)O (stereo not drawn) | 0 | 100 | 100 | 0 | 0 | 0 |  |
| C=C1CC1CC(=O)O (stereo not drawn) | 90 | 100 | 100 | 0 | 80 | 15 |  |
| C=C1CC1CC(=O)OCCCCCCCCCCCCCCCC (stereo not drawn) | 100 | 100 | 100 | 0 | 100 | 50 |  |
| C=C1CC1CCOC(=O)c1ccc(OCC)cc1 (stereo not drawn) | 100 | 100 | 100 | 0 | 100 | 0 |  |
| C=C1C(CC(=O)O)C1(F)F (stereo not drawn) |  |  |  | 0 | 100 | 0 |  |
